Data published in patent US7449312B2, “Kit for conducting a polymerase chain reaction” (The Secretary of State for Defense in Her Britannic …, priority 2001, dated 2008).
Where two headings read alike, the source gives them in different places.

B1: Sac PPase: thermostable pyrophosphatase of Sulfolobus acidocaldarius, obtainable from GeneSys Limited (protein, UniProt P50308 1-173, looked up)
Inorganic pyrophosphatase: MKLSPGKNAPDVVNVLVEIPQGSNIKYEYDDEEGVIKVDRVLYTSMNYPFNYGFIPGTLEEDGDPLDVLVITNYQLYPGSVIEVRPIGILYMKDEEGEDAKIVAVPKDKTDPSFSNIKDINDLPQATKNKIVHFFEHYKELEPGKYVKISGWGSATEAKNRIQLAIKRVSGGQ

Legend:
[1] = system: thermostable DNA polymerases (Taq, Tbr, Tth, TspNH, Pfu, 9°N exo-, VENT, Accurase); assay: PCR with different thermostable DNA polymerases, with PPi and Sac PPase; type: biochemical; settings: FIGS. 7a, 7b, 8b
Excerpt: A variety of thermostable DNA polymerases were employed in the method of the invention and some comparative assays. These included several non-proofreading Thermus sp. DNA polymerases, proof-reading hyperthermophilic archael DNA polymerases and mixes of non-proofreading and proofreading DNA polymerases.
They were all tested using the 500 bp lambda PCR as described in Example 1 (FIGS. 7a and 7b), and several using the Angiotensin assay as described in Example 4 (FIGS. 8a and 8b).

Taq DNA polymerase = Taq DNA polymerase (Thermus aquaticus, UniProt P19821); settings: for suppression of PCR: results not shown
Method: Using Taq DNA polymerase, a standard 500 bp lambda template PCR using the following reagents, was conducted in the presence of differing quantities of the inorganic pyrorphosphate, tetrasodium pyrophosphate decahydrate (PPi).
1× Reaction Buffer: 10 mM Tris. pH 8.0, 50 mM KCl.
(§1) PCR conditions for the assay were as follows:
The PPi was added such that the final concentration in the reaction mixture was 0, 1, 2, 3, 4 and 5 mM. In this Figure, the lanes correspond to the following concentrations of PPi
In order to eliminate this possibility, the procedure of Example 1 with 3 mM PPi was repeated in the presence of various concentrations of magnesium ions.
The example was repeated using concentrations of PPi of less than 1 mM.

[2] = 500 bp lambda PCR in the presence of PPi and PPase; type: biochemical; settings: 0.2 u Sac PPase; 95° C. for 5 mins
Excerpt: The 500 bp lambda PCR of Example 1 was repeated, but this time, 0.2 u of Sulfolobus acidocaldarius PPase (Sac PPase) was included in reactions containing pyrophosphate (PPi).
The results are shown in FIG. 3 where the lanes represent the following reactions: […]

[3] = system: 321 bp fragment of the human angiotensin gene; assay: Angiotensin PCR assay requiring a HotStart reaction; type: biochemical; settings: up to two hours at ambient temperature; 0.2 u Sac PPase, 3 mM PPi
Excerpt: The method of the invention was then applied to an assay system that requires a “HotStart” reaction in order to generate a PCR product of the correct size.
The assay is based around the amplification of a 321 bp fragment of the human angiotensin gene. It has been recognised that the assay will only generate the correct amplification product in the presence of betaine (EP-A-0962526—see in particular Example 8).
Without betaine a HotStart DNA polymerase generates few non-specific amplification products or no products at all whereas a non-HotStart DNA polymerase PCR generates a large number of non-specific amplification products.
The PCR conditions used in the Angiotensin assay can be summarised as follows.
as §1
The reaction was conducted using a PE9700 Instrument in the presence of 3 mM PPi and 0.2 u PPase as described in Example 3.
The effect of leaving a PCR mixture containing 0.2 u Sac PPase and 3 mM PPi at room temperature 20° C. for various lengths of time prior to conducting the Angiotensin assay, was investigated. Although Sac PPase is a thermostable enzyme, it was possible that there would be a small level of enzyme activity at ambient temperatures. This might lead to insufficient PPi in the reaction to inhibit/stop the DNA polymerase leading to primer extension and lack of “HotStart” functionality. […]

Taq DNA polymerase, sequence (P19821 whole entry): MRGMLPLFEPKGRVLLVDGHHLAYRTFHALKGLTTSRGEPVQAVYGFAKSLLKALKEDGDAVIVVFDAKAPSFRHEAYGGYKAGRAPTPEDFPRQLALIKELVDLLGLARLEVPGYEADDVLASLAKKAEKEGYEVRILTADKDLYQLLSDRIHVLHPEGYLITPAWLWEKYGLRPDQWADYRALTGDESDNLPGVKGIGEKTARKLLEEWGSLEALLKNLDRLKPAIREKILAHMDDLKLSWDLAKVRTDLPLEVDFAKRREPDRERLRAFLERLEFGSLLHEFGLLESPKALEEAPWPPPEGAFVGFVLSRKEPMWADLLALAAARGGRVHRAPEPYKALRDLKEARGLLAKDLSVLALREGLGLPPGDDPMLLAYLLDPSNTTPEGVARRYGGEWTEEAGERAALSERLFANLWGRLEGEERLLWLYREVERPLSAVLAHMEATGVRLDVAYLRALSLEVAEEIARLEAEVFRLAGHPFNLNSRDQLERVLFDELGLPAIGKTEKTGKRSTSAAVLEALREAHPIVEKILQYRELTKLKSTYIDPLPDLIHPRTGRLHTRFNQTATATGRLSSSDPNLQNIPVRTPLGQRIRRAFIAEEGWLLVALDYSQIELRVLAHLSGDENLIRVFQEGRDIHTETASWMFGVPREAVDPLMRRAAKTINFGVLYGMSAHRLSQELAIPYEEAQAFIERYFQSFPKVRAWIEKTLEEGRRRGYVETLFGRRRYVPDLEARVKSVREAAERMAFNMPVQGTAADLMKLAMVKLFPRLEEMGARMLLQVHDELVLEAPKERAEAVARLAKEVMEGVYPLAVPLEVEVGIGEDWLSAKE

| Molecule | inhibition of DNA polymerases by PPi ([1]; 3 mM PPi, no PPase) | suppression of PCR (Taq DNA polymerase; 0.4 mM PPi) | suppression of PCR (Taq DNA polymerase; 0.6 mM PPi) | PCR with increasing magnesium ion concentration (Taq DNA polymerase; 3 mM PPi, Mg++ up to 10 mM final concentration, FIG. 2) | PCR product formation in presence of PPi (Taq DNA polymerase; PPi 1, 2, 3, 4 and 5 mM final, 1.5 mM MgCl2, FIG. 1) | reversal of PPi inhibition by PPase ([1]; 3 mM PPi and 0.2u Sac PPase) | destruction of pyrophosphate so that the PCR reaction could proceed [2] | ambient temperature digestion of PPi by PPase [3] |
| --- | --- | --- | --- | --- | --- | --- | --- | --- |
| O.O.O.O.O.O.O.O.O.O.O=P([O-])([O-])OP(=O)([O-])[O-].[Na+].[Na+].[Na+].[Na+] [PPi, tetrasodium pyrophosphate decahydrate] | inhibited | did not completely suppress the PCR | no PCR occurred | does not allow PCR to occur | no PCR product was produced | – | – | – |
| B1 | – | – | – | – | – | inhibition could be overcome | sufficient to destroy the pyrophosphate | insufficient ambient temperature digestion of the PPi |
